Reference: the supplement of paper PMC10307832

Columns and labels:
Experiment in all cases: relative viability (nuclei count vs DMSO), 5 days (fraction); higher = more cells survive
ALW-II-49-7 + Olaparib = compound: Cc1ccc(C(=O)Nc2cccc(C(F)(F)F)c2)cc1Nc1cncc(C(N)=O)c1 [ALW-II-49-7] + O=C(c1cc(Cc2n[nH]c(=O)c3ccccc23)ccc1F)N1CCN(C(=O)C2CC2)CC1 [Olaparib] (partner 8 µM)
How it was run: (§1)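 Relative viability divides the nuclei count in treated wells by that in vehicle wells. Lung cancer cell lines were seeded in 1536-well plates, dosed by pin tool the next day, and fixed and stained after 5 days in one step with final 0.05% Triton X-100, 1% formaldehyde and 1 ug/ml Hoechst. Dosing was a single drug or a fixed anchor-drug dose plus five library-drug doses (not always all listed) in √10 steps, and values are medians of duplicate plates imaged at 4×.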

XMD13-2 + Foretinib = compound: C1CC1C(=O)NC2=NNC3=C2C=CC(=C3)C4=CC(=CC=C4)C(=O)NC5CC5 [XMD13-2] + COc1cc2c(Oc3ccc(NC(=O)C4(C(=O)Nc5ccc(F)cc5)CC4)cc3F)ccnc2cc1OCCCN1CCOCC1 [Foretinib] (partner 0.25 µM)
How it was run: as §1

Dasatinib + Navitoclax = compound: Cc1nc(Nc2ncc(C(=O)Nc3c(C)cccc3Cl)s2)cc(N2CCN(CCO)CC2)n1 [Dasatinib] + CC1(C)CCC(c2ccc(Cl)cc2)=C(CN2CCN(c3ccc(C(=O)NS(=O)(=O)c4ccc(N[C@H](CCN5CCOCC5)CSc5ccccc5)c(S(=O)(=O)C(F)(F)F)c4)cc3)CC2)C1 [Navitoclax] (partner 0.5 µM)
How it was run: as §1

Dasatinib + OSI-027 = compound: Cc1nc(Nc2ncc(C(=O)Nc3c(C)cccc3Cl)s2)cc(N2CCN(CCO)CC2)n1 [Dasatinib] + COc1cccc2cc(-c3nc([C@H]4CC[C@H](C(=O)O)CC4)n4ncnc(N)c34)[nH]c12 [OSI-027] (partner 0.5 µM)
How it was run: as §1

Cell Line | relative viability (ALW-II-49-7 + Olaparib; first compound 0.08 µM) | relative viability (ALW-II-49-7 + Olaparib; first compound 0.253 µM) | relative viability (ALW-II-49-7 + Olaparib; first compound 0.8 µM) | relative viability (ALW-II-49-7 + Olaparib; first compound 2.53 µM) | relative viability (ALW-II-49-7 + Olaparib; first compound 8 µM) | relative viability (XMD13-2 + Foretinib; first compound 0.05 µM) | relative viability (XMD13-2 + Foretinib; first compound 0.1581 µM) | relative viability (XMD13-2 + Foretinib; first compound 0.5 µM) | relative viability (XMD13-2 + Foretinib; first compound 1.581 µM) | relative viability (XMD13-2 + Foretinib; first compound 5 µM) | relative viability (Dasatinib + Navitoclax; first compound 0.005 µM) | relative viability (Dasatinib + Navitoclax; first compound 0.01581 µM) | relative viability (Dasatinib + Navitoclax; first compound 0.05 µM) | relative viability (Dasatinib + Navitoclax; first compound 0.1581 µM) | relative viability (Dasatinib + Navitoclax; first compound 0.5 µM) | relative viability (Dasatinib + OSI-027; first compound 0.005 µM) | relative viability (Dasatinib + OSI-027; first compound 0.01581 µM) | relative viability (Dasatinib + OSI-027; first compound 0.05 µM) | relative viability (Dasatinib + OSI-027; first compound 0.1581 µM) | relative viability (Dasatinib + OSI-027; first compound 0.5 µM)
LCLC-97TM1 | 0.429 | 0.442 | 0.399 | 0.279 | 0.353 | 1.04 | 0.918 | 0.975 | 0.965 | 0.685 | 0.448 | 0.488 | 0.579 | 0.413 | 0.282 | 0.557 | 0.598 | 0.55 | 0.606 | 0.38
LK-2 | 0.803 | 0.682 | 0.576 | – | 0.817 | 1.45 | 0.959 | 1.06 | 1.16 | 1.16 | 0.782 | 0.594 | 0.373 | 0.292 | 0.245 | 0.2 | 0.174 | 0.158 | 0.167 | 0.172
LOU-NH91 | 0.846 | 0.946 | 0.923 | – | 0.805 | 1.01 | 0.979 | 1 | 0.943 | 1.04 | 0.758 | 0.595 | 0.531 | 0.506 | 0.317 | 0.705 | 0.604 | 0.595 | 0.526 | 0.344
LU99A | – | 0.292 | 0.249 | 0.254 | 0.288 | 0.977 | 0.734 | 0.831 | 0.824 | 0.58 | 0.748 | 0.924 | 0.88 | 0.828 | 0.385 | 0.296 | – | 0.264 | 0.232 | 0.216
LXF-289 | 1.02 | 0.909 | 1.09 | 1.26 | 1.09 | 0.979 | 0.973 | 0.897 | 0.98 | 1.06 | 1.01 | 0.969 | 0.923 | 0.408 | 0.171 | 0.812 | 0.733 | 0.567 | 0.323 | 0.125
NCI-H23 | 0.328 | 0.363 | 0.383 | 0.294 | 0.298 | 1.21 | 0.83 | 1.02 | 1.06 | 1.01 | 0.828 | 0.716 | 0.896 | 0.496 | 0.315 | 0.497 | 0.502 | 0.615 | 0.492 | 0.325
NCI-H322M | 0.288 | 0.742 | 0.638 | 0.732 | 0.716 | 1.06 | 1.02 | 0.909 | 0.971 | 1.09 | 1.28 | 1.27 | 1.31 | 0.524 | 0.237 | 0.549 | 0.483 | 0.351 | 0.213 | 0.168
NCI-H441 | 0.592 | 0.52 | 0.592 | 0.47 | 0.383 | 1.1 | 0.902 | 0.956 | 1.06 | 0.661 | 0.579 | 0.544 | 0.456 | 0.241 | 0.135 | 0.784 | 0.582 | 0.742 | 0.424 | 0.307
NCI-H460 | 0.435 | 0.704 | 0.414 | 0.143 | 0.325 | 1.1 | 1.11 | 1.05 | 1.06 | 1.01 | 0.828 | 0.912 | 0.815 | 0.563 | 0.217 | 0.549 | 0.474 | 0.405 | 0.387 | 0.17
NCI-H520 | 0.306 | 0.339 | 0.33 | 0.31 | 0.328 | 0.876 | 0.754 | 0.536 | 0.637 | 0.402 | 0.946 | 0.644 | 0.555 | 0.273 | 0.27 | 0.24 | 0.144 | 0.158 | 0.151 | 0.133
NCI-H596 | 0.523 | 0.616 | 0.774 | 0.599 | 0.757 | 0.89 | 0.62 | 1.03 | 0.852 | 0.888 | 0.818 | 0.707 | 0.726 | 0.253 | 0.187 | 0.656 | 0.632 | 0.547 | 0.479 | 0.306
NCI-H647 | 0.619 | 0.386 | 0.636 | 0.51 | 0.367 | 1.36 | 1.13 | 1.31 | 1.21 | 0.796 | 0.983 | 0.731 | 0.392 | 0.307 | 0.152 | 0.672 | 0.303 | 0.251 | 0.213 | 0.118
NCI-H727 | 0.663 | 0.843 | 0.603 | 0.501 | 0.597 | 1.21 | 0.903 | 0.946 | 0.738 | 0.737 | 0.404 | 0.266 | 0.186 | 0.139 | 0.143 | 0.6 | 0.488 | 0.45 | 0.295 | 0.197
NCI-H838 | 0.715 | 0.744 | 0.881 | 0.844 | 0.7 | 1.19 | 1.05 | 1.01 | 1.04 | 1.01 | 1.03 | 0.791 | 0.709 | 0.389 | 0.21 | 0.409 | 0.266 | 0.265 | 0.252 | 0.179
NCI-H1355 | 0.68 | 0.822 | 0.846 | 0.655 | 0.651 | 1.08 | 0.944 | 1.04 | 1.08 | 1.1 | 0.858 | 0.653 | 0.92 | 0.534 | 0.376 | 0.434 | 0.291 | 0.287 | 0.272 | 0.271
NCI-H1395 | 0.473 | 0.449 | 0.435 | – | 0.459 | 0.983 | 1.02 | 1.05 | 0.992 | 1 | 1.01 | 0.971 | 0.91 | 0.609 | 0.476 | 0.615 | 0.7 | 0.541 | 0.361 | 0.35
NCI-H1437 | 0.611 | 0.631 | 0.658 | 0.647 | 0.601 | 1.2 | 1.25 | 1.25 | 1.24 | 1.27 | 1.09 | 1.05 | 1.09 | 0.999 | 0.432 | 1.01 | 0.863 | 0.837 | 0.798 | 0.365
NCI-H1650 | 0.71 | 0.602 | 0.749 | 0.905 | 0.969 | 1.36 | 1.07 | 1.15 | 0.967 | 1.81 | 1.26 | 0.934 | 0.83 | 0.506 | 0.387 | 0.571 | 0.355 | 0.318 | 0.219 | 0.171
NCI-H1651 | 0.15 | 0.176 | 0.176 | 0.169 | 0.171 | 0.866 | 0.808 | 0.799 | 0.744 | 0.827 | 0.962 | 0.806 | 0.759 | 0.76 | 0.611 | 0.801 | 0.503 | 0.529 | 0.572 | 0.487
NCI-H1666 | 0.692 | 0.798 | 0.684 | 0.738 | 0.728 | 1.12 | 0.998 | 0.913 | 0.926 | 0.982 | 0.948 | 0.895 | 0.917 | 0.617 | 0.324 | 0.915 | 0.843 | 0.849 | 0.733 | 0.486
NCI-H1734 | 0.57 | 0.628 | 0.596 | 0.46 | 0.558 | 1.05 | 0.843 | 0.864 | 0.8 | 0.658 | 0.729 | 0.695 | 0.629 | 0.404 | 0.374 | 0.562 | 0.432 | 0.476 | 0.411 | 0.307
NCI-H1755 | 0.888 | 0.942 | 0.913 | 0.798 | 0.627 | 1.04 | 0.871 | 0.939 | 0.86 | 0.937 | 0.697 | 0.591 | 0.501 | 0.273 | 0.142 | 0.679 | 0.604 | 0.507 | 0.384 | 0.191
NCI-H1793 | 0.977 | 0.834 | 0.785 | 0.911 | 0.753 | 0.84 | – | 0.966 | 0.791 | 0.68 | 0.323 | 0.182 | 0.238 | 0.166 | 0.152 | 0.2 | 0.238 | 0.234 | 0.218 | 0.147
NCI-H1915 | 0.243 | 0.275 | 0.224 | 0.211 | 0.398 | 1.12 | 1.08 | 1.12 | 1.11 | 1.21 | 0.803 | 0.728 | 0.75 | 0.44 | 0.261 | 0.559 | 0.516 | 0.463 | 0.187 | 0.164
NCI-H1944 | 0.451 | 0.391 | 0.381 | 0.375 | 0.374 | 0.898 | 0.886 | 0.935 | 1.04 | 0.946 | 1.03 | 1.07 | 0.976 | 0.695 | 0.504 | 0.365 | 0.404 | 0.284 | 0.179 | 0.174
NCI-H1975 | 0.739 | 0.845 | 0.793 | 0.682 | 0.683 | 1.06 | 0.939 | 0.96 | 0.978 | 0.982 | 0.895 | 1.02 | 1.03 | 0.412 | 0.308 | 0.608 | 0.589 | 0.556 | 0.32 | 0.201
NCI-H1993 | 1.01 | 1.02 | 0.928 | 1.06 | 1.32 | 0.838 | 0.689 | 0.775 | 0.785 | 0.507 | 0.872 | 0.7 | 0.724 | 0.581 | 0.736 | 0.512 | 0.524 | 0.491 | 0.532 | 0.554
